Source: PMC6273433, “Design, Synthesis and Cytotoxicity of Novel Dihydroartemisinin-Coumarin Hybrids via Click Chemistry” (Molecules, 2016)
Like-named read-outs stand apart in the source and are kept apart here.

How the values were obtained:
[1] = tested on: MRC-5 (human fetal lung fibroblast cells, normal lung cell); test: MTT cytotoxicity assay, MRC-5 normal cells; format: cell-based; details: MRC5, MRC-5, normoxia, 96 h MTT
Description: (§1) We focused our attention on the cytotoxicity of the four series of newly-synthesized compounds (10a–e, 11a–e, 12a–e, and 13a–e) under normoxic or anoxic conditions.
(§2) The data was calculated by the Logit method and presented as IC50 values in Table 1.
(§3) All of the newly-synthesized compounds were screened for in vitro cytotoxicity by MTT assay. The exponentially-growing MRC-5, HCT-116, MDA-MB-231, and HT-29 cells were allowed to grow until 80% confluency, the culture medium was discarded, digested with trypsin, separated centrifugally, then fresh culture medium was added and blown gently into single-cell suspension. Then, the cell suspension was seeded into each well of 96-well microculture plates at a concentration of 1.5 × 10^3–3 × 10^3 cells/well.
(§4) The cells were incubated with 50 μL of 2 mg/mL MTT solution for 4 h in a humidified incubator. The supernatant was discarded, and the media were then replaced with 200 μL of dimethyl sulfoxide to dissolve the purple colored formazan crystals formed in the wells, and their absorbances were measured at 492 nm with a microplate reader (Synergy-HT, BioTek Instruments, Winooski, VT, USA); 200 μL DMSO was set as the blank control.

[2] = tested on: HCT-116 (human colorectal cancer cell line); test: MTT cytotoxicity assay, HCT-116 under anoxia or normoxia; format: cell-based; details: for HCT-116 Value = IC50(normoxia)/IC50(anoxia): HCT-116, activity promotion under anoxia, >100 set as 100; for IC50: Homo sapiens
Description: as §1, §2, §3, §4
(§5) The anoxia condition was achieved by placing cells in a sealed hypoxia incubator chamber (Catalog Number 27310, Stemcell Technologies, Inc., Vancouver, BC, Canada) filled with 5% CO2 and 95% N2.

[3] = tested on: MDA-MB-231 (human breast carcinoma cell line, CA IX negative); test: MTT cytotoxicity assay, MDA-MB-231 under anoxia or normoxia; format: cell-based; details: for IC50: Homo sapiens; for MDA-MB-231 Value = IC50(normoxia)/IC50(anoxia): MDA-MB-231, activity promotion under anoxia, >100 set as 100
Description: as §1, §2, §3, §4, §5

[4] = tested on: HT-29 (human colon carcinoma cell line, overexpresses high amounts of CA IX); test: MTT cytotoxicity assay, HT-29 under anoxia or normoxia; format: cell-based; details: for HT-29 Value = IC50(normoxia)/IC50(anoxia): HT-29, activity promotion under anoxia; for IC50: Homo sapiens
Description: as §1, §2, §3, §4, §5

[5] = HCT-116, anoxia 24 h then normoxia 72 h, MTT, read-out: IC50 HCT-116 Anoxia
[6] = HCT-116, normoxia, 96 h MTT, read-out: IC50 HCT-116 Normoxia
[7] = MDA-MB-231, anoxia 24 h then normoxia 72 h, MTT, read-out: IC50 MDA-MB-231 Anoxia
[8] = MDA-MB-231, normoxia, 96 h MTT, read-out: IC50 MDA-MB-231 Normoxia
[9] = HT-29, anoxia 24 h then normoxia 72 h, MTT, read-out: IC50 HT-29 Anoxia
[10] = HT-29, normoxia, 96 h MTT, read-out: IC50 HT-29 Normoxia

Row | melting point [°C] | SMILES | IC50 [1] [µM] | HCT-116 Value = IC50(normoxia)/IC50(anoxia) [2] | IC50 [2, 5] [µM] | IC50 [2, 6] [µM] | IC50 [3, 7] [µM] | IC50 [3, 8] [µM] | MDA-MB-231 Value = IC50(normoxia)/IC50(anoxia) [3] | HT-29 Value = IC50(normoxia)/IC50(anoxia) [4] | IC50 [4, 9] [µM] | IC50 [4, 10] [µM]
1 | 71 to 73 | Cc1c(Cl)c(=O)oc2cc(OCc3cn(CCCO[C@H]4O[C@@H]5O[C@@]6(C)CC[C@H]7[C@H](C)CC[C@@H]([C@H]4C)[C@@]57OO6)nn3)ccc12 [13d, 3-Chloro-7-(1-(3-(10β-Dihydroartemisininoxy)propyl)-1H-1,2,3-triazol-4-yl)methoxy-4-methyl-2H-chromen-2-one] | 31.5 | 41.38 | 0.43 | 18 | 3.62 | 72.5 | 20.03 | 1.87 | 4.68 | 8.76
2 | – | CCOC(=O)c1cc2ccc(OCCn3cc(CO[C@H]4O[C@@H]5O[C@@]6(C)CC[C@H]7[C@H](C)CC[C@@H]([C@H]4C)[C@@]57OO6)nn3)cc2oc1=O [10e, Ethyl 2-oxo-7-(2-(4-(10β-dihydroartemisininoxy)methyl)-1H-1,2,3-triazol-1-yl)ethoxy-2H-chromene-3-carboxylate] | 52.5 | 1.79 | 28.8 | 51.5 | 91.2 | > 100 | – | 3.66 | 8.69 | 31.8
3 | 79 to 81 | CCOC(=O)c1cc2ccc(OCc3cn(CCCO[C@H]4O[C@@H]5O[C@@]6(C)CC[C@H]7[C@H](C)CC[C@@H]([C@H]4C)[C@@]57OO6)nn3)cc2oc1=O [13e, Ethyl 2-oxo-7-(1-(3-(10β-dihydroartemisininoxy)propyl)-1H-1,2,3-triazol-4-yl)methoxy-2H-chromene-3-carboxylate] | 27.2 | 3.65 | 17.6 | 64.3 | 25.9 | 53.7 | 2.07 | 2.22 | 7.09 | 15.7
4 | – | COc1cccc2c1C(=O)c1c(O)c3c(c(O)c1C2=O)C[C@@](O)(C(=O)CO)C[C@@H]3O[C@H]1C[C@H](N)[C@H](O)[C@H](C)O1 [DOX, doxorubicin, reference compound] | 0.34 | 0.39 | 0.15 | 0.06 | 0.37 | 0.27 | 0.73 | 1.74 | 0.05 | 0.09
5 | – | Cc1cc(=O)oc2cc(OCCn3cc(CO[C@H]4O[C@@H]5O[C@@]6(C)CC[C@H]7[C@H](C)CC[C@@H]([C@H]4C)[C@@]57OO6)nn3)ccc12 [10a, 7-(2-(4-(10β-Dihydroartemisininoxy)methyl)-1H-1,2,3-triazol-1-yl)ethoxy-4-methyl-2H-chromen-2-one] | 28 | 0.86 | 11.9 | 10.3 | 36.7 | 52 | 1.42 | 8.35 | 1.47 | 12.3
6 | – | CCOC(=O)c1cc2ccc(OCCCn3cc(CO[C@H]4O[C@@H]5O[C@@]6(C)CC[C@H]7[C@H](C)CC[C@@H]([C@H]4C)[C@@]57OO6)nn3)cc2oc1=O [11e, Ethyl 2-oxo-7-(3-(4-(10β-dihydroartemisininoxy)methyl)-1H-1,2,3-triazol-1-yl)propoxy-2H-chromene-3-carboxylate] | 38.7 | 1.57 | 28.1 | 44.1 | 50.7 | 121 | 2.38 | 4.25 | 12 | 51.1
7 | – | C[C@H]1[C@@H](OCc2cn(CCCOc3ccc4c(C(F)(F)F)cc(=O)oc4c3)nn2)O[C@@H]2O[C@@]3(C)CC[C@H]4[C@H](C)CC[C@@H]1[C@@]24OO3 [11b, 7-(3-(4-(10β-Dihydroartemisininoxy)methyl)-1H-1,2,3-triazol-1-yl)propoxy-4-trifluoromethyl-2H-chromen-2-one] | 43.8 | 1.38 | 9.33 | 12.9 | 36.9 | 72.6 | 1.97 | 1.63 | 5.06 | 8.23
8 | – | C[C@H]1[C@@H](OCc2cn(CCOc3ccc4c(C(F)(F)F)cc(=O)oc4c3)nn2)O[C@@H]2O[C@@]3(C)CC[C@H]4[C@H](C)CC[C@@H]1[C@@]24OO3 [10b, 7-(2-(4-(10β-Dihydroartemisininoxy)methyl)-1H-1,2,3-triazol-1-yl)ethoxy-4-trifluoromethyl-2H-chromen-2-one] | 33.6 | 0.78 | 8.31 | 6.46 | 24.7 | 28 | 1.13 | 4.99 | 2.18 | 10.9
9 | – | Cc1cc(=O)oc2cc(OCCCn3cc(CO[C@H]4O[C@@H]5O[C@@]6(C)CC[C@H]7[C@H](C)CC[C@@H]([C@H]4C)[C@@]57OO6)nn3)ccc12 [11a, 7-(3-(4-(10β-Dihydroartemisininoxy)methyl)-1H-1,2,3-triazol-1-yl)propoxy-4-methyl-2H-chromen-2-one] | 15.5 | 1.36 | 6.02 | 8.21 | 17.8 | 51.2 | 2.87 | 7.17 | 1.22 | 8.78
10 | – | Cc1c(C)c2ccc(OCCn3cc(CO[C@H]4O[C@@H]5O[C@@]6(C)CC[C@H]7[C@H](C)CC[C@@H]([C@H]4C)[C@@]57OO6)nn3)cc2oc1=O [10c, 7-(2-(4-(10β-Dihydroartemisininoxy)methyl)-1H-1,2,3-triazol-1-yl)ethoxy-3,4-dimethyl-2H-chromen-2-one] | 22.3 | 0.95 | 6.89 | 6.51 | 33.2 | 32.3 | 0.97 | 11.50 | 1.82 | 21
11 | – | Cc1c(Cl)c(=O)oc2cc(OCCn3cc(CO[C@H]4O[C@@H]5O[C@@]6(C)CC[C@H]7[C@H](C)CC[C@@H]([C@H]4C)[C@@]57OO6)nn3)ccc12 [10d, 3-Chloro-7-(2-(4-(10β-dihydroartemisininoxy)methyl)-1H-1,2,3-triazol-1-yl)ethoxy-4-methyl-2H-chromen-2-one] | 50.7 | 0.79 | 5.3 | 4.18 | 29.2 | 61.4 | 2.10 | – | 0.05 | 17.7
12 | – | Cc1c(C)c2ccc(OCCCn3cc(CO[C@H]4O[C@@H]5O[C@@]6(C)CC[C@H]7[C@H](C)CC[C@@H]([C@H]4C)[C@@]57OO6)nn3)cc2oc1=O [11c, 7-(3-(4-(10β-Dihydroartemisininoxy)methyl)-1H-1,2,3-triazol-1-yl)propoxy-3,4-dimethyl-2H-chromen-2-one] | 60.9 | 1.27 | 16.6 | 21 | 39.8 | 56 | 1.41 | 0.83 | 23.2 | 19.3
13 | – | Cc1c(Cl)c(=O)oc2cc(OCCCn3cc(CO[C@H]4O[C@@H]5O[C@@]6(C)CC[C@H]7[C@H](C)CC[C@@H]([C@H]4C)[C@@]57OO6)nn3)ccc12 [11d, 3-Chloro-7-(3-(4-(10β-dihydroartemisininoxy)methyl)-1H-1,2,3-triazol-1-yl)propoxy-4-methyl-2H-chromen-2-one] | > 100 | 1.28 | 6 | 7.68 | 22.5 | 51.6 | 2.29 | 2.90 | 1.34 | 3.9
